The values below come from publication PMC7175117, “Biological Evaluation and Docking Studies of New Carbamate, Thiocarbamate, and Hydrazide Analogues of Acyl Homoserine Lactones as Vibrio fischeri-Quorum Sensing Modulators” (Biomolecules, 2020).

Entries after “also recorded” stand apart in the source; their conditions may differ.

In test [1] the test system is Vibrio fischeri quorum sensing system. Put plainly: Antagonistic activity: decrease of bioluminescence in competition with OHHL (200 nM) in recombinant E. coli NM522 with sensor plasmid pSB401. It counts as cell-based. To be noted: for residual bioluminescence: 100 µM of analogue in competition with 200 nM OHHL; for IC50: increasing concentration of compound in competition with 200 nM OHHL. The method, then:
(§1) The recombinant Escherichia coli strain NM522 with the sensor plasmid pSB401 was used to measure the induction of luminescence. Bacterial cultures were grown in Luria broth (50 mL) at 30 °C. After 18 h, this bacterial culture was diluted 10 times to be used in the assay using 96-well plates (100 µL per well). For agonistic activity, compounds were tested at increasing concentrations in DMSO (max 2% in a total volume of 200 µL of LB). For antagonistic activity, compounds were tested in competition with OHHL (200 nM) at increasing concentrations in DMSO (max 2% in a total volume of 200 µL). This 200 nM concentration of OHHL is fully pertinent since concentrations as low as 10 or 50 nM are already valid protocols as reported in meaningful studies. Bioluminescence was measured with a Tecan spark luminometer (Männedorf, Switzerland).
(§2) All compounds were evaluated for the ability to induce bioluminescence (agonistic activity) or to decrease bioluminescence in the presence of 3-oxo-hexanoyl-L-homoserine lactone (OHHL) at 200 nM (antagonistic activity). Hydrazide AHL analogues were deprived of any activity.
A first assessment of the antagonistic activity was performed by measuring residual bioluminescence at 100 µM concentration of analogues in competition with 200 nM of OHHL. […] A residual bioluminescence of 42% for the L-butyl carbamate derivative 2 vs. 89% for the D-isomer 3 was measured showing the influence of the configuration on luminescence and therefore on QS inhibition.
To determine IC50 values, the decrease of bioluminescence of was measured using increasing concentration of each compound in presence of 200 nM of OHHL (Table 1). Values ranging from 22 to 94 µM, in the range of other reported of AHL-structurally related QS inhibitors, were measured for compounds 2, 4–7, and 9–11. Differences in the calculated LogP values are consistent with inhibitory activity for most compounds except 4-nitrobenzyl analogues. This is the case for all thiocarbamates vs. carbamates, and also when comparing the butyl (2) and hexyl (4) derivatives, or the benzyl and 4-bromobenzyl substituents.

The test system is the same in test [2]. Put plainly: Agonistic activity: induction of bioluminescence in recombinant E. coli NM522 with sensor plasmid pSB401. The test is classed as cell-based. The method, then: as §1, §2

In the case of `CCCCOC(=O)N[C@@H]1CCOC1=O` [Compound 3, N-(butoxycarbonyl)-D-homoserine lactone], the residual bioluminescence in test [1] was found to be 89%.

Turning to `O=C(N[C@H]1CCOC1=O)OCc1ccccc1` [Compound 5, N-(benzyloxycarbonyl)-L-homoserine lactone], in test [1], the IC50 (usually the midpoint of a concentration-inhibition curve) worked out at 86 µM.

Turning to `CCOC(=O)N[C@H]1CCOC1=O` [Compound 1, N-(ethoxycarbonyl)-L-homoserine lactone], the “bioluminescence induced, relative to that obtained with the natural ligand OHHL at 200 nM” value in test [2] (compound at 200 µM, OHHL reference at 200 nM) was 18%. Further, the agonistic activity result in test [2] (induction of bioluminescence, increasing concentrations) was “weak agonistic activity; also recorded: very weak agonistic activity”.

In the case of `CCCCCCOC(=O)N[C@H]1CCOC1=O` [Compound 4, N-(hexyloxycarbonyl)-L-homoserine lactone], in test [1], the residual bioluminescence came to 22% and the 50% inhibitory concentration (IC50) is 73 µM.

As to `CCCCOC(=O)N[C@H]1CCOC1=O` [Compound 2, N-(butoxycarbonyl)-L-homoserine lactone], in test [1], the residual bioluminescence was determined as 42% and the IC50 turned out to be 94 µM.

Turning to `O=C(N[C@H]1CCOC1=O)SCc1ccccc1` [Compound 10, N-(benzylthiocarbonyl)-L-homoserine lactone], in test [1], the IC50 came out at 64 µM.

As to `CCCCSC(=O)N[C@H]1CCOC1=O` [Compound 9, N-(butylthiocarbonyl)-L-homoserine lactone], the IC50 in test [1] is 45 µM.

`O=C(N[C@H]1CCOC1=O)OCc1ccc(Br)cc1` [Compound 6, N-(4-bromobenzyloxycarbonyl)-L-homoserine lactone]: the IC50 in test [1] came out at 64 µM.
